# Results reported in patent publication US20060003988A1, “Compounds capable of inhibiting immunocyte-related allergic immune reactions” (priority 2002, published 2006).
# Structures can show the parent of a compound that is named as a salt.
# How the values were obtained:
# [1] = test system: IL-2 production from peripheral blood T cells; assay: IL-2 production from peripheral blood T cells (ELISA); type: cell-based, human; details: each costimulation condition; 24 hours; up to maximum concentration (10 μM ebastine, 100 μM carebastine)
# Description: (§1) In order to analyze whether or not H1 blockers have an inhibitory effect on cytokine production induced by the various costimulations described above, the present inventors measured Th1 type cytokines (IL-2, and IFN-γ) in the culture supernatant induced by the various costimulations described above.
# (§2) The antibody-coated plates and T cells were prepared similarly as in Example 1 except that the OKT3 concentration was 0.5 μg/ml. The cytokine production by T cells was analyzed in triplicate using 96-well flat-bottomed plates by the same method employed in the T cell proliferation analysis described above. After culturing for 24 hours, the culture supernatant was tested using ELISA kit (IL-2: Biosource International, Camarillo, Calif.; IFN-γ: R&D systems, Minneapolis, Minn.) to quantify IL-2 and IFN-γ.
# PHA-stimulated T cells [2] = assay: Transendothelial migration of PHA-stimulated T cells through ECV304 monolayer; type: cell-based, human; details: compound present during migration, eight hours
# Description: Since fresh resting-stage T cells hardly migrate by permeating a monolayer of endothelial cells, these T cells were activated using PHA (10 μg/ml) prior to performing transendothelial migration analysis.
# Specifically, the analysis of transendothelial migration was performed by slightly modifying a known method (Iwata S, Yamaguchi N, Munakata Y, Ikushima H, Lee J F, Hosono O, Schlossman S F, Morimoto C. “CD26/DPPIV differentially regulates the chemotaxis of T cells and monocytes toward RANTES. Possible mechanism for the switch from innate to acquired immune response.” Int Immunol. 11:417-426, 1999). Human endothelial cell strain ECV304 was obtained from the American Tissue Culture Collection (ATCC; Rockville, Md.) and cultured for 48 hours on Transwell cell culture inserts (Corning Costar, Cambridge, Mass.) with a pore size of 3.0 μm. The cells were loaded onto a 24-well plastic plate for cell culture (FALCON), and mixed with H1 blockers at various concentrations using Transwell assay medium (RPMI1640 medium, BSA 0.6%, Penicillin G/Streptomycin 1%, HEPES 50 mM). Two-hundred μl of PHA-stimulated T cells (1×10^7/ml) were then placed in the upper chamber and 600 μl of assay medium was placed in the lower chamber, and migration was performed for eight hours at 37° C. under 5% CO2. After recovery of the cells, the number of cells was counted for one minute by flow cytometry (FACSCalibur, Nippon Becton-Dickinson, Tokyo, Japan).
# [3] = test system: TNF-α production from macrophages; assay: TNF-α production from macrophages upon LPS stimulation (ELISA); type: cell-based, human
# Source text: (§3) Specifically, in order to produce IL-6 and THF-α from macrophages, peripheral blood mononuclear cells were adhered to a plastic plate to isolate and recover macrophages.
# [4] = in vivo; cited from earlier work
# [5] = test system: IFN-γ production from peripheral blood T cells; assay: IFN-γ production from peripheral blood T cells (ELISA); type: cell-based, human; details: each costimulation condition; 24 hours; ebastine 0.1 μM to 10 μM, carebastine 1 μM to 100 μM
# Description: as §1, §2
# [6] = test system: IL-5 production from peripheral blood T cells; assay: IL-5 production from peripheral blood T cells (ELISA); type: cell-based, human; details: for effect on IL-5 production: each costimulation condition, concentration-dependent
# Description: as §2
# (§4) Th2 type CD4 T cells play an important role in allergic diseases. […] This analysis was performed similarly as in Example 2 except that ELISA (IL-4: Biosource International, Camarillo, Calif.; IL-5: R&D systems, Minneapolis, Minn.) was used to quantify IL-4 and IL-5.
# [7] = test system: IL-4 production from peripheral blood T cells; assay: IL-4 production from peripheral blood T cells (ELISA); type: cell-based, human
# Description: as §2, §4
# [8] = test system: IL-6 production from peripheral blood T cells; assay: IL-6 production from peripheral blood T cells (ELISA); type: cell-based, human; details: for effect on IL-6 production from T cells: each costimulation condition
# Description: as §2
# (§5) The present inventors analyzed the effects of H1 blockers on the production of inflammatory cytokines, such as IL-6 and TNF-α, from T cells due to the various costimulation pathways described above. This analysis was performed similarly as in Example 2 above except for the use of an ELISA kit for measuring IL-6 and TNF-α (R&D systems, Minneapolis, Minn.).
# [9] = test system: TNF-α production from peripheral blood T cells; assay: TNF-α production from peripheral blood T cells (ELISA); type: cell-based, human; details: for effect on TNF-α production from T cells: each costimulation condition
# Description: as §2, §5
# [10] = test system: IL-6 production from macrophages; assay: IL-6 production from macrophages upon LPS stimulation (ELISA); type: cell-based, human
# Source text: as §3
# [11] = test system: histamine-induced contraction in trachea samples; details: trachea samples excised from guinea pigs; read-out: IC50 of the effects on histamine-induced contraction; cited from earlier work
# PHA-stimulated T cells [12] = assay: Adhesion of PHA-stimulated T cells to endothelial cells (fluorescence microscopy); details: 1.0 μM to 5.0 μM; six hours; dose-dependent
# Source text: After six hours, the culture dish was washed three times with PBS.
# [13] = dose increased to five times from that used for the treatment; cited from earlier work
# [14] = according to the Interview Form; cited from earlier work
# [15] = biological target: human recombinant H1 receptors (Homo sapiens, UniProt P35367); details: read-out: IC50 of inhibiting ligand binding to H1 receptors; cited from earlier work
# H2 receptors [16] = biological target: T1, H2 receptors (Homo sapiens, UniProt P25021); details: read-out: IC50 in the inhibition of ligand binding to H2 receptors; cited from earlier work
# T cells = assay: T cell proliferation (3H-thymidine incorporation) via different costimulation pathways; type: cell-based, human; details: stimulation on CD3 combined with CD26, CD28 or PMA; all concentrations used
# Description: The first pathway was PMA, the second pathway stimulation on CD28 that is one of the representative T cell costimulation molecules, and the third pathway stimulation on CD26 that is expressed on CD4^+ memory T cells. The simulation on CD3 was applied together with all of these stimulations. The stimulation on CD3, CD26, and CD28 was performed using monoclonal antibodies OKT3, 1F7 (Morimoto C et al., 1989, supra), and 4B10 (immi CD et al., 1991, supra), respectively. OKT3 was purchased from the American Tissue Culture Collection (ATCC, Rockville, Md.), while 4B10 and 1F7 were purified from mouse ascites of hybridomas established in the present inventors' laboratory (Gimmi C D et al., 1991, supra; Morimoto C et al., 1989, supra). […]
# Phosphate-buffer saline (PBS) (100 μl) containing either one of the monoclonal antibodies, OKT3 (0.05 μg/ml), 1F7 (1 μg/ml), or 4B10 (2 μg/ml), was coated in triplicate according to a known method (Dang N H et al., 1990, supra) on flat-bottomed 96-well plates (Coster, Cambridge, Mass.), and the plates were then incubated overnight at 4° C. […] The cells were stimulated for eight hours with 1 μCi ^3H-thymidine (ICN Radiochemicals, Irvine, Calif.) per well, recovered on a glass fiber filter (Wallac, Turku, Finland) to quantify the incorporated radioactivity with a liquid scintillation counter (Wallac).
# H2 receptors [17] = biological target: T1, H2 receptors; details: at maximum concentration; cited from earlier work
# [18] = each costimulation condition, concentration-dependent
# T1 sequence (P25021 whole entry): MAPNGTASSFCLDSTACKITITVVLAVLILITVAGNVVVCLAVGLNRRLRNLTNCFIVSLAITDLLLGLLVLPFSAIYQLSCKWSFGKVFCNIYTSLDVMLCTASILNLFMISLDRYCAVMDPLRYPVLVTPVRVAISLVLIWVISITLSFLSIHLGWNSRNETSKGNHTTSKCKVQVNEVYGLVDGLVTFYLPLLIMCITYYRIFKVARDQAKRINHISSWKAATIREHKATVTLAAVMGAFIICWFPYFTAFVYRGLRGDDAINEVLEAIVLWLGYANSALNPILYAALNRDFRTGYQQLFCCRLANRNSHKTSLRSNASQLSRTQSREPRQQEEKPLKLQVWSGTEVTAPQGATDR
# Chain of human recombinant H1 receptors (P35367 whole entry): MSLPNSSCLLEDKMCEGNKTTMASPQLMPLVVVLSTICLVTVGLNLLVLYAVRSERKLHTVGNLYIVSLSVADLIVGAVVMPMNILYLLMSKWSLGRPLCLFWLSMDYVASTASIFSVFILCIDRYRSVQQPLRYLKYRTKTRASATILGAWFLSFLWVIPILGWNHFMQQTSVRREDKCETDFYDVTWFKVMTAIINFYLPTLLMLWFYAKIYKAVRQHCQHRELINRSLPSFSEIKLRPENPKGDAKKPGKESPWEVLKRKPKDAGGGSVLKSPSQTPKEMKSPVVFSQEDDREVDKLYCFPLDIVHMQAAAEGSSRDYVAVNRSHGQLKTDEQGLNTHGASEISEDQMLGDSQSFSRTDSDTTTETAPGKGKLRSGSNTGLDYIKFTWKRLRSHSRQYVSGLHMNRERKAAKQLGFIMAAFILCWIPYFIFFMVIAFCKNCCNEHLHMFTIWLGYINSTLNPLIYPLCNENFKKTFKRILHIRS
SMILES,effect on IL-2 production [1],effect on T cell migration (PHA-stimulated T cells [2]),effect on TNF-α production from macrophages ([3]; eight hours),maximum blood concentration [4] [µM],effect on IFN-γ production [5],effect on IL-5 production [6],"effect on IL-4 production [7, 18]",effect on IL-6 production from T cells [8],effect on TNF-α production from T cells [9],effect on IL-6 production from macrophages ([10]; eight hours),IC50 [11] [nM],IC50 (H2 receptors [16]) [nM],further results
"CC(C)(C(=O)O)c1ccc(C(=O)CCCN2CCC(OC(c3ccccc3)c3ccccc3)CC2)cc1 [carebastine, 4-[4-[4-(di-phenylmethoxy)-1-piperidinyl]-1-oxobutyl]-α, α-di-methylbenzeneacetic acid]",did not inhibit,suppressed,suppressed,0.1,did not have a clear effect,inhibited,inhibited,inhibited,inhibited,suppressed,120,–,–
O=C(O)COCCN1CCN(C(c2ccccc2)c2ccc(Cl)cc2)CC1 (centres unmarked) [cetirizine hydrochloride],did not have a clear effect,–,no inhibition,–,did not have a clear effect,did not have a clear effect,did not have a clear effect,did not have a clear effect,did not have a clear effect,no inhibition,–,–,–
"CC(C)(C)c1ccc(C(=O)CCCN2CCC(OC(c3ccccc3)c3ccccc3)CC2)cc1 [ebastine, 4-diphenylmethoxy-1[3-(4-terbutyl-benzoyl)-propyl]piperidine]",did not inhibit,–,suppressed,–,did not have a clear effect,inhibited,inhibited,inhibited,inhibited,suppressed,–,–,"adhesion of PHA-stimulated T cells to endothelial cells (PHA-stimulated T cells [12]): suppress; suppression of TNF-α production from macrophages ([3]; 1 μM): ≥ 50%; effect on TNF-α production from macrophages ([3]; 10 μM): nearly completely inhibited; suppression of IL-5 production ([6]; 20 μM, all donors): 100%; effect on QT interval [13]: not to affect; effect on IL-4 production ([7]; 10 μM): nearly completely inhibited; suppression of IL-4 production ([7]; 20 μM, all donors): 100%; suppression of IL-6 production from T cells ([8]; 10 μM to 20 μM): 100%; suppression of TNF-α production from T cells ([9]; 10 μM to 20 μM): 100%; suppression of IL-6 production from macrophages ([10]; 1 μM): ≥ 50%; effect on IL-6 production from macrophages ([10]; 10 μM): nearly completely inhibited"
"NC1=NCC2c3ccccc3Cc3ccccc3N12 (centres unmarked) [epinastine hydrochloride, 3-amino-9,13b-dihydro-1H-dibenz(c,f)imidazol(1,5-a)azepine hydro-chloride]",suppressed,did not have a clear effect,no inhibition,0.1,suppressed,inhibited,inhibited,no clear effect,no clear effect,no inhibition,–,640 ± 62,efficacy in the improvement of bronchial asthma to a medium degree or greater [14]: 47.0%; IC50 [15]: 1.1 ± 0.16 nM
CN1CCC(=C2c3ccccc3CC(=O)c3sccc32)CC1 [ketotifen fumarate],did not have a clear effect,did not have a clear effect,no inhibition,0.01,did not have a clear effect,did not have a clear effect,did not have a clear effect,did not have a clear effect,did not have a clear effect,no inhibition,2.5,2200 ± 450,effect on T cell proliferation (T cells): hardly inhibited
CC(C)(C)c1ccc(C(O)CCCN2CCC(C(O)(c3ccccc3)c3ccccc3)CC2)cc1 (centres unmarked) [terfenadine],–,–,–,–,–,–,–,–,–,–,–,–,inhibition rate to [3H]-tiotidine (H2 receptors [17]): 29%
